# Test results: publication PMC2999882 (Molecular pharmacology, 2008)
# Values joined by “and” are separate entries in the source; they are usually repeats but may differ in a detail not shown here. Identical values can stand only once. Like-named read-outs stand apart in the source and are kept apart here.
# How the values were obtained:
# other nAChR tested = settings: cited from earlier work
# α7 nAChR [1] = settings: cited from earlier work
# 5HT3 receptors [2] = molecular target: T1, 5HT3 receptors (Homo sapiens, UniProt P46098); settings: cited from earlier work
# T1 sequence (P46098 24-478): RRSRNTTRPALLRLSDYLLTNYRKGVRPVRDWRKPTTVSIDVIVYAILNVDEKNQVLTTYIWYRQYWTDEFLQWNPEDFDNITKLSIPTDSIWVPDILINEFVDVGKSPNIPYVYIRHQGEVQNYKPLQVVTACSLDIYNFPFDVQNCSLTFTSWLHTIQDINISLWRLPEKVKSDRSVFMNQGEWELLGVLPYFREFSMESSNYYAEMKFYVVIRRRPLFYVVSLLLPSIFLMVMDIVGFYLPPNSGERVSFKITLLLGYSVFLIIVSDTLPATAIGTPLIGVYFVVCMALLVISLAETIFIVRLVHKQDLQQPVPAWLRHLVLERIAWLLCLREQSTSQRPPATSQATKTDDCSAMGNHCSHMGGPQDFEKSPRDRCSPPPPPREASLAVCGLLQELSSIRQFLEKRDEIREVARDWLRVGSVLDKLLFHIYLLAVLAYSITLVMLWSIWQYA
# [3] = molecular target: rat brain membrane α7 sites; settings: cited from earlier work
# rat α7 nAChR = settings: X. laevis oocytes; ref Papke et al., 2005b; cited from earlier work
# 5HT3 receptors [4] = molecular target: T1, 5HT3 receptors; settings: cited from earlier work; remark: listed apart in the source
# human α7 = settings: cited from earlier work
# α3β4 nAChR = α3β4 nAChR (Homo sapiens, UniProt P30926+P32297)
# α4β2 nAChR [5] = molecular target: T2, α4β2 nAChR (Homo sapiens, UniProt P17787+P43681); assay type: cell-based; settings: 100 µM coapplied with 30 µM ACh
# 5HT3 receptors [6] = molecular target: T1, 5HT3 receptors; assay type: cell-based; settings: 100 µM; normalized to maximal serotonin response; detection threshold 5%
# [7] = molecular target: T3, muscle type (α1β1εδ) nAChR (Homo sapiens, UniProt P02708+Q04844+Q07001); assay type: cell-based; settings: 100 µM; normalized to ACh maximum; detection threshold 0.5%
# 5HT3 receptors [8] = molecular target: T1, 5HT3 receptors; assay type: cell-based; settings: 100 µM coapplied with 10 µM serotonin
# [9] = molecular target: T3, muscle type (α1β1εδ) nAChR; assay type: cell-based; settings: 100 µM coapplied with 3 µM ACh
# α9 nAChR = settings: ref Papke et al., 1996; Verbitsky et al., 2000; cited from earlier work
# α7 nAChR [10] = molecular target: α7 nAChR (Homo sapiens, UniProt P36544)
# α4β2 nAChR [11] = molecular target: T2, α4β2 nAChR; assay: cell-based; assay type: cell-based
# T2 sequence (P43681 29-627 limits assumed): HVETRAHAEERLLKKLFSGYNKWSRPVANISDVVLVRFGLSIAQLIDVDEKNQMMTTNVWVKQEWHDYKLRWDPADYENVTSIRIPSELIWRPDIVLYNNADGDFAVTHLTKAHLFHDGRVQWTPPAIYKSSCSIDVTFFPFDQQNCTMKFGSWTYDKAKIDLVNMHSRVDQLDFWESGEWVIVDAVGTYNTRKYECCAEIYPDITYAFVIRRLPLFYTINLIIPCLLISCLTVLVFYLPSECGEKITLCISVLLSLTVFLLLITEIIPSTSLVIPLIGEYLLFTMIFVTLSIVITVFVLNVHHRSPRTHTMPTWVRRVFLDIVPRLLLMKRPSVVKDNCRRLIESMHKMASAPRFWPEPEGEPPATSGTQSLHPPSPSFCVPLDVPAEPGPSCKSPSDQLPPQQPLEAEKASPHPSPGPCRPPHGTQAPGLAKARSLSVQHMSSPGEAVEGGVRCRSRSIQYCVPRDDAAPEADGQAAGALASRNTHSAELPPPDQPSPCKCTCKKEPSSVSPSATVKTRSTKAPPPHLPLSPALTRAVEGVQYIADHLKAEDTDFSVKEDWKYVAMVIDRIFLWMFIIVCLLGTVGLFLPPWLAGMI
# T2 sequence (P17787 26-502): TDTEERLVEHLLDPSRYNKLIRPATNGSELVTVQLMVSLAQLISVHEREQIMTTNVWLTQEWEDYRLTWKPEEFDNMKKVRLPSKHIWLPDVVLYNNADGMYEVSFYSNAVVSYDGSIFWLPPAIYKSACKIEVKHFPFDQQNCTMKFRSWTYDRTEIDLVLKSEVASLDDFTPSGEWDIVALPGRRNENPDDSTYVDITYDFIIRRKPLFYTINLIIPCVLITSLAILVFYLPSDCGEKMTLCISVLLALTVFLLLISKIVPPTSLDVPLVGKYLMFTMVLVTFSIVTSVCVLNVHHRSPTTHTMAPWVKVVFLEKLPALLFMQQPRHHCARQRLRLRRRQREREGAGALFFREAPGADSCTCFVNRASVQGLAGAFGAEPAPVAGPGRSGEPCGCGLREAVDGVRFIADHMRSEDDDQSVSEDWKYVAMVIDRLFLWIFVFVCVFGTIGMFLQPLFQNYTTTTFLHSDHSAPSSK
# Sequence of α7 nAChR (Homo sapiens, UniProt P36544) (P36544 23-502): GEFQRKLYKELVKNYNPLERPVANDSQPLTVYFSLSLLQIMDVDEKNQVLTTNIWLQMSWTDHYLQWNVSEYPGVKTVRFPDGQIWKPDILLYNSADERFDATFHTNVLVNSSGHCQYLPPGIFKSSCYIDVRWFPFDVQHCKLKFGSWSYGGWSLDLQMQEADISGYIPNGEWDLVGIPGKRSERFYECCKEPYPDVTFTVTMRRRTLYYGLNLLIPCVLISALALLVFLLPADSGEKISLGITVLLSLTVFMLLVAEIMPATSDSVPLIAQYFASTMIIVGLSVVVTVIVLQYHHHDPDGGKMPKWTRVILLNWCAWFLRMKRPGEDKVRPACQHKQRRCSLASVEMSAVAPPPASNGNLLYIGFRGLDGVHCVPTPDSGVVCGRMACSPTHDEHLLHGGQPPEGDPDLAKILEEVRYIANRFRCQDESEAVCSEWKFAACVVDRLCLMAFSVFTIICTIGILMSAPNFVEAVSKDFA
# T3 sequence (P02708 21-457): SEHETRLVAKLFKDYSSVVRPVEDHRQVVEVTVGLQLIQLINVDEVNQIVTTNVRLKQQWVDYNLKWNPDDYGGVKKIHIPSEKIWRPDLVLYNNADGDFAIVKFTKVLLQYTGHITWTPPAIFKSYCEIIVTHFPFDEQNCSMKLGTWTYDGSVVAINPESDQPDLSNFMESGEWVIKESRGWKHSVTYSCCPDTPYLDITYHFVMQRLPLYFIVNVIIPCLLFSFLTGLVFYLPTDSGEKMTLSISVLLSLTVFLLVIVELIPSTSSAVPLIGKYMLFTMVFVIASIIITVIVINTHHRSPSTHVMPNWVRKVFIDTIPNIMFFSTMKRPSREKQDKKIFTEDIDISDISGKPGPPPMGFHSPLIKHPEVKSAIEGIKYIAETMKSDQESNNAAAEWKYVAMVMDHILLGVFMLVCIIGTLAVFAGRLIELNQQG
# T3 sequence (P11230 24-501 partner): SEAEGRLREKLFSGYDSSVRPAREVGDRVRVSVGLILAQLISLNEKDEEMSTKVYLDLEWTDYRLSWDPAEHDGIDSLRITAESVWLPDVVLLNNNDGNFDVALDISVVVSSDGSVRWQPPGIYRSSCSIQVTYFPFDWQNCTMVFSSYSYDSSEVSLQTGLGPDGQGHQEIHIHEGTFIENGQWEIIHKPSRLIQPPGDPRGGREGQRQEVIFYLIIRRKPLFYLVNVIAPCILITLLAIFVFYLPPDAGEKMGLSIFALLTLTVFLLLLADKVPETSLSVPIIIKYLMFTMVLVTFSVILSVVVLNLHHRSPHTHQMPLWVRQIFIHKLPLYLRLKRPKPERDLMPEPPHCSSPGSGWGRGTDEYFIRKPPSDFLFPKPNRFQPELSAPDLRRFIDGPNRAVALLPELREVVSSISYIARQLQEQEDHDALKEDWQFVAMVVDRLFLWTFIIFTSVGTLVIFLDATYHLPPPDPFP
# T3 sequence (Q04844 21-493): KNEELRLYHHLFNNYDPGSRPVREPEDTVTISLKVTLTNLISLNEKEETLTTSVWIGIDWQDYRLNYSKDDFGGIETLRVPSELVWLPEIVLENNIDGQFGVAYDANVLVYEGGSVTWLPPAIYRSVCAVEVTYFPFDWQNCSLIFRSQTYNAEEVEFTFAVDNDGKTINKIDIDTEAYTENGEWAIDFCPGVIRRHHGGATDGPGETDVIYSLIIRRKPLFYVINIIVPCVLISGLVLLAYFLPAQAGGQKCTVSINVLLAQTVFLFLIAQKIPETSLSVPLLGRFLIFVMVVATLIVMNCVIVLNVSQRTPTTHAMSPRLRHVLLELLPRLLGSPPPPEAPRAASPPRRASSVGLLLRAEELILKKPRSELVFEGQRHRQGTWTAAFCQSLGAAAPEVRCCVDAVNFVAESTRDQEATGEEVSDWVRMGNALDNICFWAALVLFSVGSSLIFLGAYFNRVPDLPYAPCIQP
# T3 sequence (Q07001 22-517): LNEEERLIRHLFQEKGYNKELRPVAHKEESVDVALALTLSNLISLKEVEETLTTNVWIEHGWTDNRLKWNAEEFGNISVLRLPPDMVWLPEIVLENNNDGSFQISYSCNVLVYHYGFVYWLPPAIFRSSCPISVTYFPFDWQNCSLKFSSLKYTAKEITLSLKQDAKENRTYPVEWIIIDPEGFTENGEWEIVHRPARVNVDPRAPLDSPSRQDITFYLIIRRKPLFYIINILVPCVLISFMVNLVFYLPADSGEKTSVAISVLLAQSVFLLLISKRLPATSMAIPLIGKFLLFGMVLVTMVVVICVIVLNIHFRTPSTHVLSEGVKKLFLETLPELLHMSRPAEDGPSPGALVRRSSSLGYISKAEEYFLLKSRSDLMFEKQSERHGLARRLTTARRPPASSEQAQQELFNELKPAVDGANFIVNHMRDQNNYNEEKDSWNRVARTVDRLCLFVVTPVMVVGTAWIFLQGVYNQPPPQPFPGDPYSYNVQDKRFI
# Sequence of α3β4 nAChR (P32297 32-505): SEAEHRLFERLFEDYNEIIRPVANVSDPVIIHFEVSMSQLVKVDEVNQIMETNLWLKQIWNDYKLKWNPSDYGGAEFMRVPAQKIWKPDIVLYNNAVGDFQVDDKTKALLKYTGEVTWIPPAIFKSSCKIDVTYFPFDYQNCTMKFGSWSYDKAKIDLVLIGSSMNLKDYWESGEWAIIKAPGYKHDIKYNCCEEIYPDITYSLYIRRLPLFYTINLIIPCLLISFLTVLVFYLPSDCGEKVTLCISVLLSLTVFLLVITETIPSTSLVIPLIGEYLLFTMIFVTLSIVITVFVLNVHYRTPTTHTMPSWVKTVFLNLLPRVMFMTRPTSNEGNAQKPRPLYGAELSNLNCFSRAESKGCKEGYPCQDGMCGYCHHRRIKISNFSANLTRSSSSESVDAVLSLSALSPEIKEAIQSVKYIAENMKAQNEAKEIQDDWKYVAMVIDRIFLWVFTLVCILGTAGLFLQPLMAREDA
# Sequence of α3β4 nAChR (P30926 22-498): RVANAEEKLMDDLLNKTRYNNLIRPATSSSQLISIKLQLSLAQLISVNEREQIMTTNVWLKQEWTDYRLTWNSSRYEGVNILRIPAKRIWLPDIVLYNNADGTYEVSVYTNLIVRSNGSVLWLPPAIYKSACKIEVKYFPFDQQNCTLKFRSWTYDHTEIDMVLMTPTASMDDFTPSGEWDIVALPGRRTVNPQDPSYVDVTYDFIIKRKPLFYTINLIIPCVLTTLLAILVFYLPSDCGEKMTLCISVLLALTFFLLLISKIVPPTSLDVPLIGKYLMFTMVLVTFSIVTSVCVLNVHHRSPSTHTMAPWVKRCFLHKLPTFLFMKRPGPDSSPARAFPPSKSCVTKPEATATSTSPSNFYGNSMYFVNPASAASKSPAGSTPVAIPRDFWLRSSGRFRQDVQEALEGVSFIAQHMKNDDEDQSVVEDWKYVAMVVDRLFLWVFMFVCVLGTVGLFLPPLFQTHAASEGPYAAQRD
compound,measurement,setting,value
"c1cncc(C2CCC3CCN2CC3)c1 (centres unmarked) [TC-1698, 2-(3-pyridyl)-1-azabicyclo[3.2.2]nonane]",activation of the heteromeric neuronal nAChR tested (Summary),other nAChR tested,A potent full agonist for α7 nAChR with negligible activation of the heteromeric neuronal nAChR tested but with low-potency partial agonist activity for muscle nAChR. Effective competitive antagonist at α4β2 nAChR.
same,activity at α4β2 nAChR (Summary),other nAChR tested,A potent full agonist for α7 nAChR with negligible activation of the heteromeric neuronal nAChR tested but with low-potency partial agonist activity for muscle nAChR. Effective competitive antagonist at α4β2 nAChR.
same,activity for muscle nAChR (Summary),other nAChR tested,A potent full agonist for α7 nAChR with negligible activation of the heteromeric neuronal nAChR tested but with low-potency partial agonist activity for muscle nAChR. Effective competitive antagonist at α4β2 nAChR.
same,agonist character at α7 (Summary),α7 nAChR [1],A potent full agonist for α7 nAChR with negligible activation of the heteromeric neuronal nAChR tested but with low-potency partial agonist activity for muscle nAChR. Effective competitive antagonist at α4β2 nAChR.
CN1C[C@@H]2CN(c3ccc4oc5ccccc5c(=O)c4c3)C[C@@H]2C1 [A-844606],activity at other nAChR (Summary),other nAChR tested,Partial agonist of a7 with relatively little activation of other nAChR tested. Demonstrated to have antagonist activity for α4β2 and more potently for putative α3β4. Mechanism of antagonism not investigated.
same,agonist character at α7 (Summary),α7 nAChR [1],Partial agonist of a7 with relatively little activation of other nAChR tested. Demonstrated to have antagonist activity for α4β2 and more potently for putative α3β4. Mechanism of antagonism not investigated.
O=C(N[C@H]1CN2CCC1CC2)c1ccc(Cl)cc1 [PNU-282987],IC50,5HT3 receptors [2]; read-out: IC50 5HT3 receptors (functional antagonist),~5 µM
same,Ki,"[3]; read-out: Ki, displacement of MLA binding from rat brain homogenates",0.027 µM
"cis-1-methyl-2,3,3a,4,5,9b,-hexahydro-1H-pyrrolo[2,3-f]quinoline [ACME]","Imax, % of that of ACh, rat α7 nAChR",rat α7 nAChR,"The rigid nicotine analogs ACME and ACME-B were partial agonists for rat α7 nAChR (Imax, 10 and 20% of that of ACh, respectively). ACME-B was 2-fold more potent (EC50 ≈ 26 µM) than the boron-free form ACME. Potential antagonist activity of non-α7 nAChR not investigated."
"COc1ccccc1-c1cccc2cc(C(=O)N[C@H]3CN4CCC3CC4)oc12 [ABBF, N-[(3R)-1-azabicyclo[2.2.2]oct-3-yl]-7-[2-(methoxy)phenyl]-1-benzofuran-2-carboxamide]",Effects on 5HT3 Receptors,5HT3 receptors [2],Antagonist
same,affinity for rat brain membrane α7 sites,[3],"Putative full agonist for human α7 (EC50 ≈ 3 µM) and an antagonist for other nAChR tested (IC50 values of 1–8 µM). Mechanism of antagonism not investigated. Bound to 5HT3 receptors with high affinity (60 nM), comparable with rat brain membrane α7 sites (62 nM)."
same,affinity for 5HT3 receptors,5HT3 receptors [4],"Putative full agonist for human α7 (EC50 ≈ 3 µM) and an antagonist for other nAChR tested (IC50 values of 1–8 µM). Mechanism of antagonism not investigated. Bound to 5HT3 receptors with high affinity (60 nM), comparable with rat brain membrane α7 sites (62 nM)."
same,agonist character at human α7 (Summary),human α7,"Putative full agonist for human α7 (EC50 ≈ 3 µM) and an antagonist for other nAChR tested (IC50 values of 1–8 µM). Mechanism of antagonism not investigated. Bound to 5HT3 receptors with high affinity (60 nM), comparable with rat brain membrane α7 sites (62 nM)."
same,EC50,human α7; read-out: EC50 human α7,~3 µM
"C[N+](C)(C)CCO [Choline, choline, reference compound]",agonist character at α3β4,α3β4 nAChR,too low to be characterized in regard to potency
same,α3β4 Imax,"α3β4 nAChR; peak current, relative to ACh maximum (ACh constrained to 1)",0.04 ± 0.01
same,α4β2 Inhibition,α4β2 nAChR [5],N.S.
same,5HT3 Activity,5HT3 receptors [6],N
same,α1β1εδ Activity,[7],N
same,5HT3 Inhibition,5HT3 receptors [8],N.S.
same,activity at heteromeric nAChR (Summary),"other nAChR tested; ref Papke et al., 1996, Verbitsky et al., 2000",little or no activity
same,α1β1εδ Inhibition,[9],N.S.
same,activity at α9 nAChR (Summary),α9 nAChR,agonist
same,EC50,α7 nAChR [10],243 ± 8 µM
same,α7 Imax,α7 nAChR [10],0.90 ± 0.1
same,"α7 potency, fold less potent than ACh",α7 nAChR [10],approximately 10 fold
same,"α7 potency, fold lower than related agonists that lack the oxygen group (e.g., ETMA and QN)",α7 nAChR [10],at least 10 fold
same,α4β2 Activity,"α4β2 nAChR [11]; 100 µM, normalized to ACh maximum, detection threshold 1%",≈1%
same,"α4β2 response, % of the ACh maximum",α4β2 nAChR [11]; 3 mM agonist,2.3 ± 0.3% and 2%
same,"potency for α7, fold lower than that of ACh",α7 nAChR [1],10 fold
CCN(CC)CCOc1ccc2c(c1)C(=O)c1cc(OCCN(CC)CC)ccc1-2 [Tilorone],activity at other nAChR (Summary),"other nAChR tested; α4β2, putative α3β4 (IMR-32), ref Briggs et al., 2008",antagonist activity for α4β2 and more potently for putative α3β4
same,agonist character at α7 (Summary),"α7 nAChR [1]; human α7, rat α7, oocytes, transfected cells, ref Briggs et al., 2008",Partial agonist
C[C@H](OC(=O)N[C@@H]1CN2CCC1CC2)c1ccccc1F [JN403],IC50,5HT3 receptors [2]; read-out: IC50 5HT3 receptors (antagonist),~20 µM
same,activity at 5HT3 receptors and other nAChRs (Summary),other nAChR tested,"In the X. laevis oocyte experiments, JN403 was a relatively potent partial agonist, with an efficacy of approximately 50% of that of ACh. 5HT3 receptors and other nAChRs were evaluated with calcium flux measurements in transfected cells, and JN403 was antagonist in these experiments."
same,"α7 efficacy, % of that of ACh",α7 nAChR [1],"In the X. laevis oocyte experiments, JN403 was a relatively potent partial agonist, with an efficacy of approximately 50% of that of ACh. 5HT3 receptors and other nAChRs were evaluated with calcium flux measurements in transfected cells, and JN403 was antagonist in these experiments."
